In US20130217615A1, “COMBINATION TREATMENT OF MAJOR DEPRESSIVE DISORDER” (SHIRE LLC, priority 2010, published 2013):
Entries after “also recorded” stand apart in the source; their conditions may differ.

Columns and labels:
[1] = system: major depressive disorder (MDD); assay: Multicenter, randomized, double-blind, placebo-controlled study of LDX (Vyvanse) as augmentation to escitalopram: efficacy (MADRS, HAM-D17, QIDS-SR, CGI); type: in vivo, human; conditions: for HAM-D17 change in total score, LS mean change (90% CI): week 8 to 14
Experimental: In this investigational 14-week, double-blind, randomized, placebo-controlled study (n=246), Vyvanse or placebo was administered orally as an adjunctive therapy to adults between the ages of 18 and 55, who experienced residual depressive symptoms following treatment with 20 mg/day escitalopram/LEXAPRO® (prospective 8-week period). Residual depressive symptoms were defined as 17—Item Hamilton Rating Scale for Depression (HAM-D 17) score at the end of this prospective phase (n=177). In the double blind 6-week period, those with residual depressive symptoms were randomized to receive escitalopram plus either placebo or Vyvanse (dose range of 20 to 50 mg per day) on a 1:1 basis.
The primary study endpoint was the mean change in the total MADRS score in non-remitters after 6 weeks of blinded treatment. Non-remitters were defined as having a total Montgomery-Asberg Depression Rating Scale (MADRS) score>10 at randomization, following 8 weeks of escitalopram treatment (n=129). The key secondary outcome was the Sheehan Disability Scale (SDS). Both the MADRS and SDS are well-validated and widely used assessments in MDD research; the MADRS provides evidence of symptomatic improvement while the SDS reflects the functional impact of the symptomatic improvement. The significance level was prospectively set at 10%.
This was a multicenter, randomized, double-blind, parallel-group, placebo-controlled study in participants with major depressive disorder (MDD) conducted at 15 sites in the United States from July 2009 to August 2010. The study had 4 phases: screening and washout (if necessary), 8 weeks of open-label escitalopram oxalate, 6 weeks of double-blind LDX treatment as augmentation therapy to escitalopram, and a safety follow-up.
Eligible participants were adults (18-55 y) with a primary diagnosis of nonpsychotic MDD according to the Structured Clinical Interview for the Diagnostic and Statistical Manual of Mental Disorders, Fourth Edition—Text Revision™ disorders—Axis I (SCID-I) (American Psychiatric Association (Diagnostic and Statistical Manual of Mental Disorders, Fourth Edition Text Revision, Washington D.C., American Psychiatric Association, 2000). Diagnosis was confirmed using Module A of the Mini-International Psychiatric Interview (MINI). Participants not receiving antidepressants at screening were required to have a baseline Hamilton Rating Scale for Depression-17 items (HAM-D17) score 22; those receiving antidepressants at screening had to have a HAM-D17 score 0 and not to have achieved remission based on investigator opinion following at least 6 weeks of treatment. Women of childbearing age were required to be nonpregnant/nonlactating and on adequate contraception. Permitted concomitant therapies included hormonal therapy, thyroid medication, […], bronchodilator inhalers, nonsedating antihistamines, antibiotics, and over the counter medications not affecting blood pressure (BP), heart rate, or the central nervous system.
After screening/washout, participants underwent 8 weeks of open-label escitalopram monotherapy (10 mg/d at week 1; 20 mg/d thereafter). At week 8 (the augmentation baseline), those with a tolerable safety profile and residual MDD symptoms, defined as a HAM-D17 score were randomized 1:1 to receive LDX or placebo in a 6-week double-blind phase. Participants were stratified by baseline remission status (escitalopram remitters: Montgomery-Asberg Depression Rating Scale [MADRS] total score 10; escitalopram nonremitters: MADRS score >10) to enhance between-treatment balance. Treatment with LDX was initiated at 20 mg/d. The dose was increased weekly, first to 30 mg/d and then to 50 mg/d, during the dose-optimization period. Investigators could increase the dose through week 10 and decrease the dose (only once per participant) at any time; the LDX dose at week 11 was maintained through study endpoint (week 14/final study visit). […]

[2] = Same study, double-blind augmentation phase: safety (TEAEs, C-SSRS, vital signs, ECG, weight/BMI, laboratory); type: in vivo, human
Text: Adverse events (AEs) were collected during the study and coded using the Medical Dictionary for Regulatory Activities, Version 11.1. Treatment-emergent AEs (TEAEs) were defined as AEs that started or deteriorated on or after the date of the first dose of study drug during the double-blind treatment phase and no later than 3 days following the last dose of study drug. The incidence of TEAEs of special interest, including psychiatric (psychosis/mania, suicide, aggression, or other) and nonpsychiatric (weight, clinical laboratory [liver enzymes], vital signs, and sexual dysfunction) was also assessed. Vital signs (sitting SBP and DBP, pulse, and sitting respiratory rate), and Columbia-Suicide Severity Rating Scale (C-SSRS; Posner K, Brent D, Lucas C, et al.) a semistructured interview assessing the occurrence, severity, and frequency of suicide-related thoughts and behaviors) were measured at screening and all study visits. Laboratory assessments were conducted at screening, week 8, week 11, and study endpoint; physical examinations were conducted at screening, week 8, and study endpoint.
Safety analyses during double-blind treatment were performed on the randomized safety analysis set (all participants who took dose of randomized augmentation treatment and had safety assessment after treatment initiation). AEs, vital signs, weight and body mass index (BMI), electrocardiograms (ECG) findings, laboratory results, and C-SSRS results were descriptively summarized.

[3] = system: major depressive disorder (MDD); conditions: augmentation of standard antidepressant treatment; cited from earlier work
[4] = escitalopram nonremitters, study endpoint
[5] = Visit 13 (week 14) / study endpoint
[6] = adjunctive therapy with escitalopram
[7] = double-blind augmentation phase, n = 88

Structure (SMILES): C[C@@H](Cc1ccccc1)NC(=O)[C@@H](N)CCCCN [LDX, N-[(1S)-1-methyl-2-phenylethyl]-L-lysinamide]
- improvement compared to placebo on the mean total MADRS ([1]; 'per protocol' analysis of non-remitting subjects, after 6 weeks, adjunctive to escitalopram 20 mg/day): −2.2
- HAM-D17 50% decrease at week 14 ([1]; all randomized participants): 62 (70.5) n (%)
- HAM-D17 total score ≦10 at week 14 ([1]; all randomized participants): 37 (42.0) n (%)
- MADRS 50% decrease at week 14 ([1]; all randomized participants): 64 (72.7) n (%)
- MADRS total score ≦10 at week 14 ([1]; all randomized participants): 52 (59.1) n (%)
- QIDS-SR change in total score, LS mean change (90% CI) ([1]; all randomized participants (n = 85)): −2.5 (−3.1, −1.8)
- HAM-D17 change in total score, LS mean change (90% CI) ([1]; all randomized participants): −3.9 (−5.0, −2.9)
- MADRS change in total score, LS mean change (90% CI) ([1]; all randomized participants, week 8 to week 14): −4.8 (−6.3, −3.4)
- MADRS items related to appetite, sleep, or thoughts of self-harm ([1]; analysis of MADRS items): no significant worsening
- MADRS items showing improvement ([1]; analysis of MADRS items, all p≦0.08): improvement present in domains of mood, concentration, interest, and motivation
- adjusted effect size of MADRS total scores for LDX vs placebo ([1]; at endpoint): −0.3
- HAM-D17 50% decrease at week 14 ([1]; escitalopram nonremitters): 41 (63.1) n (%)
- HAM-D17 total score ≦10 at week 14 ([1]; escitalopram nonremitters): 21 (32.3) n (%)
- MADRS 50% decrease at week 14 ([1]; escitalopram nonremitters): 43 (66.2) n (%)
- MADRS total score ≦10 at week 14 ([1]; escitalopram nonremitters): 32 (49.2) n (%)
- MDD symptoms vs placebo, clinician-assessed and patient self-reported measures ([1]; escitalopram nonremitters): improved MDD symptoms vs placebo
- QIDS-SR change in total score, LS mean change (90% CI) ([1]; escitalopram nonremitters (n = 63)): −2.4 (−3.1, −1.6)
- proportion achieving MADRS remission (total score ≦10) [1, 4]: 49.2%
- proportion achieving a 25% decrease in MADRS total score [1, 4]: 89.2%
- proportion of participants with a 50% decrease in MADRS total score [1, 4]: 66.2%
- HAM-D17 change in total score, LS mean change (90% CI) ([1]; escitalopram nonremitters): −4.9 (−6.0, −3.9)
- self-assessed MDD symptoms ([1]; escitalopram remitters): improved self-assessed MDD symptoms
- primary or secondary efficacy outcome measures, LDX vs placebo ([1]; escitalopram remitters, augmentation baseline and study endpoint): no significant differences; also recorded: no treatment differences
- all MADRS outcomes, LDX versus placebo ([1]; full analysis set (FAS)): numerically greater improvement
- endpoint LS mean difference between Vyvanse and placebo, total MADRS ([1]; subjects with total MADRS score >10 and <50% improvement in total MADRS score, adjunctive to escitalopram): −3.9
- LS mean (90% CI) change in QIDS-SR total scores at week 14 ([1]; table footnote, printed as escitalopram nonremitters (P = .0852)): For escitalopram nonremitters, LS mean (90% CI) change in QIDS-SR total scores at week 14 were −1.9 (−2.9, −0.9) and −0.4 (−1.4, −0.5) for those taking LDX and placebo, respectively (P = .0852)
- CGI-S: proportion of patients with a response ranging from no illness to mild illness ([1]; week 14): However, CGI-S scores at week 14 showed a numerically greater proporation of patients had a response ranging from no illness, to mild illness, with LDX (88.9%) vs placebo (61.3%)
- adverse effects beyond those previously seen ([2]; LDX with escitalopram): No significant adverse effects were seen that went beyond those previously seen with escitalopram and LDX
- increases in blood pressure and pulse rate ([2]; LDX with escitalopram): generally were small and consistent with product labeling
- BMI, mean (SD) change from augmentation baseline ([2]; Visit 13 (week 14)): −0.4 (0.70) kg/m^2
- ECG HR, mean (SD) change from augmentation baseline ([2]; Visit 13 (week 14)): 4.8 (8.64) bpm
- ECG QTcF, mean (SD) change from augmentation baseline ([2]; Visit 13 (week 14)): −4.9 (11.84) ms
- Weight, mean (SD) change from augmentation baseline ([2]; Visit 13 (week 14)): −1.2 (2.00) kg
- DBP, mean (SD) change from augmentation baseline [2, 5]: 0.9 (6.61) mmHg
- Pulse, mean (SD) change from augmentation baseline [2, 5]: 3.3 (8.45) bpm
- SBP, mean (SD) change from augmentation baseline [2, 5]: 2.3 (9.04) mmHg
- ECG and clinical laboratory changes [2, 6]: No clinically significant mean changes
- most commonly reported adverse events [2, 6]: dry mouth, headache, decreased appetite, and insomnia
- ECG and clinical laboratory changes ([2]; adjunctive therapy with escitalopram, listed as VYVANSE): No notable ECG changes or changes in clinical laboratory assessments
- TEAE: Decreased appetite [2, 7]: 6 (6.8) n (%)
- TEAE: Dry mouth [2, 7]: 10 (11.4) n (%)
- TEAE: Headache [2, 7]: 10 (11.4) n (%)
- TEAE: Insomnia [2, 7]: 4 (4.5) n (%)
- TEAE: Nasopharyngitis [2, 7]: 5 (5.7) n (%)
- Any TEAE ([2]; double-blind augmentation phase, randomized safety analysis set (n = 88)): 53 (60.2) n (%)
- abnormal hepatic enzymes (TEAE) ([2]; double-blind treatment): 1.1%
- decreased weight (TEAE) ([2]; double-blind treatment): 2.3%
- nonpsychiatric TEAEs of special interest ([2]; double-blind treatment): 9.1%
- psychiatric TEAE categorized as psychosis/mania, suicidal, or aggression ([2]; double-blind treatment): no participant
- psychiatric TEAE: abnormal dreams ([2]; double-blind treatment): 1.1%
- psychiatric TEAE: anxiety ([2]; double-blind treatment): 3.4%
- psychiatric TEAE: feeling jittery ([2]; double-blind treatment): 2.3%
- psychiatric TEAE: irritability ([2]; double-blind treatment): 3.4%
- psychiatric TEAE: somnolence, number of participants ([2]; double-blind treatment): 0
- psychiatric TEAEs of special interest ([2]; double-blind treatment): 18.2%
- vital-sign related TEAEs ([2]; double-blind treatment): 5.7%
- suicidal behavior ([2]; during augmentation treatment): No participants exhibited suicidal behavior
- patients remaining in BMI category at study endpoint ([2]; normal (18.5 to <25.0) at augmentation baseline): 81.8%
- patients remaining in BMI category at study endpoint ([2]; obese (30) at augmentation baseline): 82.5%
- patients remaining in BMI category at study endpoint ([2]; overweight (25.0 to <30.0) at augmentation baseline): 76.9%
- participants reporting at least 1 TEAE ([2]; randomized augmentation phase): 60.2%
- participants reporting mild TEAEs ([2]; randomized augmentation phase): 18.2%
- participants reporting moderate TEAEs ([2]; randomized augmentation phase): 30.7%
- participants reporting severe TEAEs ([2]; randomized augmentation phase): 11.4%
- study discontinuation due to TEAEs, number of participants ([2]; randomized augmentation phase): 2
- incidence of decreased appetite ([2]; randomized treatment): 6.8%
- incidence of dry mouth ([2]; randomized treatment): 11.4%
- incidence of headache ([2]; randomized treatment): 11.4%
- incidence of insomnia ([2]; randomized treatment): 4.5%
- incidence of nasopharyngitis ([2]; randomized treatment): 5.7%
- C-SSRS affirmative response (wished dead / not wake up), number of participants ([2]; week 9): 1
- C-SSRS affirmative response (wished dead / not wake up), number of participants ([2]; week 10): 2
- C-SSRS affirmative response (wished dead / not wake up), number of participants ([2]; week 14): 1

Structure (SMILES): O=C1CCc2ccc(OCCCCN3CCN(c4cccc(Cl)c4Cl)CC3)cc2N1 [aripiprazole]
- effect size for MADRS total scores vs placebo [3]: 0.35
